Laboratory results: the supplement of paper PMC10307832

Legend:
Experiment in all cases: relative viability (nuclei count vs DMSO), 5 days (fraction); higher = more cells survive
[1] = compound: CC[C@H](Nc1ncnc2[nH]cnc12)c1nc2cccc(F)c2c(=O)n1-c1ccccc1 [Idelalisib] + CC(=O)Nc1cccc(-n2c(=O)n(C3CC3)c(=O)c3c(Nc4ccc(I)cc4F)n(C)c(=O)c(C)c32)c1 [Trametinib] (partner 0.02 µM)
Summary of the method: (§1)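 Medians of duplicate plates are given as relative viability. That measure is the nuclei count in treated wells divided by the count in vehicle wells. Counts were taken on 4× images of lung cancer cell lines in 1536-well plates, 5 days after pin-tool dosing the day after seeding with one drug alone or a fixed anchor-drug dose plus five library-drug doses (not always all listed) in √10 steps.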

[2] = compound: CC[C@H](Nc1ncnc2[nH]cnc12)c1nc2cccc(F)c2c(=O)n1-c1ccccc1 [Idelalisib] + Nc1nc2[nH]cc(CCc3ccc(C(=O)N[C@@H](CCC(=O)O)C(=O)O)cc3)c2c(=O)[nH]1 [Pemetrexed] (partner 0.2 µM)
Summary of the method: as §1

[3] = compound: CC[C@H](Nc1ncnc2[nH]cnc12)c1nc2cccc(F)c2c(=O)n1-c1ccccc1 [Idelalisib] + Nc1ncn([C@H]2C[C@H](O)[C@@H](CO)O2)c(=O)n1 [Decitabine] (partner 2 µM)
Summary of the method: as §1

[4] = compound: CC[C@H](Nc1ncnc2[nH]cnc12)c1nc2cccc(F)c2c(=O)n1-c1ccccc1 [Idelalisib] + Cc1nc(NC(=O)N2CCC[C@H]2C(N)=O)sc1-c1ccnc(C(C)(C)C(F)(F)F)c1 [Alpelisib] (partner 2 µM)
Summary of the method: as §1

| Cell Line | relative viability ([1]; first compound 0.04 µM) | relative viability ([1]; first compound 0.1265 µM) | relative viability ([1]; first compound 0.4 µM) | relative viability ([1]; first compound 1.265 µM) | relative viability ([1]; first compound 4 µM) | relative viability ([2]; first compound 0.04 µM) | relative viability ([2]; first compound 0.1265 µM) | relative viability ([2]; first compound 0.4 µM) | relative viability ([2]; first compound 1.265 µM) | relative viability ([2]; first compound 4 µM) | relative viability ([3]; first compound 0.04 µM) | relative viability ([3]; first compound 0.1265 µM) | relative viability ([3]; first compound 0.4 µM) | relative viability ([3]; first compound 1.265 µM) | relative viability ([3]; first compound 4 µM) | relative viability ([4]; first compound 0.04 µM) | relative viability ([4]; first compound 0.1265 µM) | relative viability ([4]; first compound 0.4 µM) | relative viability ([4]; first compound 1.265 µM) | relative viability ([4]; first compound 4 µM) |
| --- | --- | --- | --- | --- | --- | --- | --- | --- | --- | --- | --- | --- | --- | --- | --- | --- | --- | --- | --- | --- |
| NCI-H522 | 0.76 | 0.646 | 0.668 | 0.727 | 0.731 | 1.3 | 0.99 | 0.995 | 1.21 | 1.05 | 0.665 | 0.67 | 0.645 | 0.631 | 0.698 |  |  |  |  |  |
| NCI-H727 | 0.423 | 0.457 | 0.34 | 0.394 | 0.387 |  |  |  |  |  | 1.03 | 0.747 | 0.867 | 0.881 | 0.889 | 0.643 | 0.69 | 0.499 | 0.588 | 0.622 |
| NCI-H1299 |  |  |  |  |  |  |  |  |  |  |  |  |  |  |  | 1.02 | 1.03 | 1.02 | 1.03 | 1.15 |
| NCI-H1563 |  |  |  |  |  | 0.845 | 0.73 | 0.714 | 0.757 | 0.732 |  |  |  |  |  | 0.839 | 1.03 | 0.807 | 0.825 | 0.669 |
| NCI-H1648 | 0.418 | 0.482 | 0.423 | 0.433 | 0.397 | 0.711 | 0.76 | 0.806 | 0.749 | 0.53 | 0.512 | 0.58 | 0.536 | 0.507 | 0.429 |  |  |  |  |  |
| NCI-H1650 | 0.524 | 0.46 | 0.618 | 0.51 | 0.575 | 0.276 | 0.43 | 0.373 | 0.382 | 0.319 | 0.456 | 0.465 | 0.515 | 0.359 | 0.448 |  |  |  |  |  |
| NCI-H1703 |  |  |  |  |  |  |  |  |  |  |  |  |  |  |  | 0.37 | 0.304 | 0.273 | 0.272 | 0.207 |
| NCI-H2228 | 0.49 | 0.684 | 0.429 | 0.583 | 0.381 | 0.369 | 0.323 | 0.407 | 0.312 | 0.325 |  |  |  |  |  | 1.07 | 0.739 | 0.774 | 0.672 | 0.631 |
| NCI-H2342 | 0.804 | 0.851 | 0.779 | 0.753 | 0.658 | 0.853 | 0.74 | 0.717 | 0.706 | 0.765 | 0.802 | 0.764 | 0.658 | 0.668 | 0.618 |  |  |  |  |  |
| SW 900 | 0.854 | 0.861 | 0.856 | 0.667 | 0.734 | 0.493 | 0.488 | 0.476 | 0.509 | 0.406 | 0.387 | 0.415 | 0.505 | 0.498 | 0.377 |  |  |  |  |  |
